# Reference: paper PMC12595484, “Optimizing multifunctional fluorescent ligands for intracellular labeling” (Proceedings of the National Academy of Sciences of the …, 2025)
# Test system: U2OS cells expressing HaloTag fusion proteins
# Assay: Live-cell labeling of HaloTag fusions at different subcellular locations, Airyscan microscopy
# Type: cell-based
# Conditions: 100 nM, 1 h
# Method: Fig. 4. Evaluation of live-cell labeling of biotin–rhodamine–HaloTag ligands 13HTL–16HTL. Airyscan fluorescence microscopy images of U2OS cells expressing HaloTag fusion proteins at different subcellular locations, incubated with 100 nM 13HTL–16HTL for 1 h followed by fixation, counterstaining with Hoechst 33342 (gray) and imaging. Columns indicate different HaloTag fusion proteins: (A–D) Cell-surface-localized HaloTag–PDGFR; (E–H) Outer mitochondrial membrane-localized HaloTag–TOMM20; (I–L) Endoplasmic reticulum membrane-localized HaloTag–Sec61β; (M–P) Nucleus-localized HaloTag–histone H2B. Rows indicate different ligands: (A,E,I, and M) biotin–JF549–HaloTag ligand (13HTL; yellow); (B, F, J, and N) biotin–JF608–HaloTag ligand (14HTL; red); (C, G, K, and O) biotin–JF646–HaloTag ligand (15HTL; magenta); (D, H, L, and P) biotin–JF635–HaloTag ligand (16HTL; magenta). […]
# indicated in the product information12 and from a previous publication.13 For labeling with biotin-JF-HaloTag ligands 13HTL–16HTL, cells were incubated with 100 nM or 1 µM ligand for 0.5–2 h at 37 °C. […] For quantitation of labeling intensity, ROIs were drawn surrounding individual HEK cells, and the average fluorescence ratio (JF/msGFP) from multiple cells in each condition was measured; no background subtraction was necessary.
# U2OS cell culture, labeling, and fluorescence microscopy. […]
smiles,measurement,value
"O=C(CCCCC1SCC2NC(=O)NC21)NCCOCCOCCNC(=O)C1C[N+](=c2ccc3c(-c4cc(C(=O)NCCOCCOCCCCCCCl)ccc4C(=O)[O-])c4ccc(N5CCC5)cc4oc-3c2)C1 (stereo not shown) [13HTL, biotin–JF549–HaloTag ligand]","labeling of HaloTag fusions (PDGFR, TOMM20, Sec61β, histone H2B)","low intracellular signals, only labeling the cell-surface-localized PDGFR–HaloTag fusion"
